Assay results: patent US10857112B2, “Small molecule inhibitors of RNA binding motif (RBM) proteins for the treatment of acute cellular injury” (University of Pittsburgh—Of the Commonwealth System of …, priority 2012, dated 2020)

Assays:
[1] = tested on: caspase-8; experiment: STS-induced caspase-8 activity in neurons; type: cell-based, rat; conditions: 150 nM STS 24 hours; co-treatment 75 μM
[2] = tested on: primary rat cortical neurons; experiment: Glutamate excitotoxic injury, neuron viability; type: cell-based; conditions: 5 μM glutamate 5 minute; post-injury 125 μM; 24 hours
Procedure: Drugs (AQ2S and MK801) were dissolved in 100% DMSO (vehicle). Rat cortical neurons were isolated from E17 embryos, and seeded onto 96-well plates at a density of 1.5×10^5/well. At day-in-vitro 8 (D.I.V. 8) culture maintenance media was replaced with treatment media (Modified Eagles Buffered Solution) without or with 5 μM Glutamate. After a 5 minute injury in treatment solution, cells were returned to normal culture maintenance media conditions (Neurobasal/B27 supplement) with either: 1) DMSO, 2) 125 μM AQ2S or 3) MK801; MK801 is an NMDA receptor channel blocker and classic neuroprotectant in this injury paradigm. Neuron viability was measured 24 hours post-injury by incubation with CellTiter Blue reagent (PROMEGA) for 2 hours. CellTiter Blue is metabolized into a fluorescent reagent only in living cells. The level of fluorescence (expressed as relative fluorescent units; RFU) was measured on a plate reader (PROMEGA).
Primary rat cortical neurons were grown onto 96-well plates. Neurons were treated with or without 5 μM glutamate. Cells were returned to regular growth media with DMSO, 125 μM AQ2S, or MK801 and viability measured 24 hours later (expressed as relative fluorescent units; RFU). […] Injury (n=7), Glut+AQ2S (n=7) and Glut+MK-801 (n=6). White bar indicated absence of glutamate injury. […] Data were analyzed by ANOVA (p<0.0001); Fisher LSD post-hoc test. * indicates p<0.05. […]

[3] = tested on: rats; conditions: intraperitoneal; cited from earlier work
[4] = tested on: mice; conditions: IP 100, 200 or 400 mg/kg; cited from earlier work
[5] = tested on: primary rat cortical neurons; experiment: H2O2 injury, neuronal viability 24 h (CellTiter-Blue); conditions: 40 μM H2O2
[6] = tested on: caspase-3; experiment: Western blot of cleaved caspase-3 and caspase-3 substrates after STS; type: cell-based, rat; conditions: 125 μM
Procedure: Caspase-3 inhibition was confirmed by biochemical analysis. Protein samples harvested from neurons incubated with 125 μM AQ2S and 500 nM STS for 6 hours were run on western blot. Consistent with caspase-3 inhibition, cleaved (i.e., activated) capase-3 was reduced in AQ2S-treated neurons (FIG. 8D). Finally, the inhibition of caspase-3 by AQ2S was confirmed biochemically via western blot analysis of substrate cleavage products. Poly ADP ribose polymerase is a classic caspase-3 substrate. The parent protein migrates at ˜116 KDa on SDS-PAGE. An 89-KDa product is produced upon cleavage by caspase-3. Cortical neurons were subjected to 250 nM STS for 6 hours.
Neurons used for Western blot analysis for grown in 6-well plates. Briefly, neurons were treated with experimental compounds for the indicated time/conditions. At the end of each experiment, neurons were washed in ice cold PBS and harvested in 65 μL RIPA buffer containing protease inhibitors, phosphatase inhibitors, and EDTA. Extracts were collected in 0.5 mL tubes and sonicated for 20-30 seconds. Cell extracts were then spun at 4° C./16,000 g/10 minutes and stored at −80° C. until use. Frozen extracts were thawed on ice and protein concentration measured using the BCA assay (PIERCE). […] of sample protein was loaded per well of a 7.5% SDS precast gel (Biorad), and run for 30 minutes to 1 hour at 200 V. Kaleidoscope protein standards (Biorad) were run parallel to neuron extracts. Proteins were then transferred to PDVF membranes (run at 100 V/4° C./1.5 hours). PDVF membranes were washed once in tris buffered saline (TBS) and blocked for 1 hour in tris buffered saline/tween-20 with 7.5% nonfat milk (TBS-T/milk). Blots were incubated overnight at 4° C. with primary antibodies in TBS-T/milk. Cell Signaling Technology: phospho-AKT473, AKT Total, phospho-ERK1/2, ERK Total, cleavage caspase-3. Santa Cruz Antibodies: NF-κB p50 subunit, NF-κB p65 subunit, and beta actin. Calbiochem: 4-HNE antibody. Blots were washed 3 times (5 minutes each) with TBS, and incubated with secondary antibodies for 2 hours. Invitrogen: goat anti-rabbit or goat anti-mouse. Blots were washed 3 times (5 minutes each) with TBS, and incubated for 1 minute in HRP detection solution (Amersham). Films were exposed to blots and developed (SRX-101A, Konica Minolta Medical & Graphic Inc.). Re-probed blots (e.g. beta actin, AKT total, ERK total) were stripped in western blot stripping buffer (Fischer Scientific) for 10 minutes, washed once with TBS, re-blocked in TBS-T/milk for 1 hour, and incubated overnight with new primary antibody. Films were scanned (EPSON GT 20,000), and densitometry performed using UN-SCAN-IT software (Silk Scientific).

In the case of `O=C1c2ccccc2C(=O)c2cc(S(=O)(=O)O)ccc21` [AQ2S, anthraquinone-2-sulfonic acid], the caspase-8 activity [1] is listed as “significantly reduced baseline and injury activity levels”, the “viability after glutamate injury” value [2] is listed as “significantly protects neurons from glutamate induced cell death” and the “Acute LD50” value [3] is listed as 730 mg/kg. For the same compound, the survival [4] was “all animals survived to toxicology day 5”, the tumor formation [4] was “did not inhibit tumor formation” and the “neuronal death after H2O2 injury” value ([5]; post-treatment 50 μM, 24 h) was “significantly reduced H2O2 induced cell death”. The “neuronal death after H2O2 injury” value ([5]; post-treatment 75 μM, 24 h after injury) was “potently prevented cell death”, the “89-KDa PARP cleavage product, western blot” value ([6]; 250 nM STS 6 hours) was “significantly reduced the formation of the 89-KDa species” and the “NF-κB p50 subunit protein levels” value ([6]; 250 nM STS 17 hours) was “No change”. For the same compound, the “NF-κB p65 subunit protein levels” value ([6]; 250 nM STS 17 hours) was “increased” and the “cleaved (activated) caspase-3, western blot” value ([6]; 500 nM STS 6 hours) was “reduced”.
